Laboratory results published in patent US12180194B2, “Multi-aziridine compound” (Covestro (Netherlands) B.V., priority 2018, dated 2024).

Legend:
[1] = system: Rtkn-GFP; test: ToxTracker genotoxicity assay, Rtkn-GFP reporter induction; settings: for Genotoxicity test, With S9 rat liver extract, Rtkn, 10 / Genotoxicity test, Without S9 rat liver extract, Rtkn, 10: GFP induction vs vehicle at 10% cytotoxicity; for Genotoxicity test, With S9 rat liver extract, Rtkn, 10 / Genotoxicity test, With S9 rat liver extract, Rtkn, 25 / Genotoxicity test, With S9 rat liver extract, Rtkn, 50: 3 h exposure with S9, 24 h recovery; for Genotoxicity test, Without S9 rat liver extract, Rtkn, 10 / Genotoxicity test, Without S9 rat liver extract, Rtkn, 25 / Genotoxicity test, Without S9 rat liver extract, Rtkn, 50: 24 h exposure, no S9; for Genotoxicity test, With S9 rat liver extract, Rtkn, 25 / Genotoxicity test, Without S9 rat liver extract, Rtkn, 25: GFP induction vs vehicle at 25% cytotoxicity; for Genotoxicity test, With S9 rat liver extract, Rtkn, 50 / Genotoxicity test, Without S9 rat liver extract, Rtkn, 50: GFP induction vs vehicle at 50% cytotoxicity; for Genotoxicity test, Rtkn induction level: fold induction
[2] = system: Bscl2-GFP; test: ToxTracker genotoxicity assay, Bscl2-GFP reporter induction; settings: for Genotoxicity test, With S9 rat liver extract, Bscl 2, 10 / Genotoxicity test, Without S9 rat liver extract, Bscl 2, 10: GFP induction vs vehicle at 10% cytotoxicity; for Genotoxicity test, With S9 rat liver extract, Bscl 2, 10 / Genotoxicity test, With S9 rat liver extract, Bscl 2, 25 / Genotoxicity test, With S9 rat liver extract, Bscl 2, 50: 3 h exposure with S9, 24 h recovery; for Genotoxicity test, Without S9 rat liver extract, Bscl 2, 10 / Genotoxicity test, Without S9 rat liver extract, Bscl 2, 25 / Genotoxicity test, Without S9 rat liver extract, Bscl 2, 50: 24 h exposure, no S9; for Genotoxicity test, With S9 rat liver extract, Bscl 2, 25 / Genotoxicity test, Without S9 rat liver extract, Bscl 2, 25: GFP induction vs vehicle at 25% cytotoxicity; for Genotoxicity test, With S9 rat liver extract, Bscl 2, 50 / Genotoxicity test, Without S9 rat liver extract, Bscl 2, 50: GFP induction vs vehicle at 50% cytotoxicity; for Genotoxicity test, Bscl 2 induction level: fold induction
[3] = with S9 rat liver extract, concentration 10 (10% cytotoxicity)
[4] = with S9 rat liver extract, concentration 25 (25% cytotoxicity)
[5] = with S9 rat liver extract, concentration 50 (50% cytotoxicity)
[6] = without S9 rat liver extract, concentration 10 (10% cytotoxicity)
[7] = without S9 rat liver extract, concentration 25 (25% cytotoxicity)

| Structure (SMILES) | Genotoxicity test, With S9 rat liver extract, Rtkn, 10 [1] [fold] | Genotoxicity test, Without S9 rat liver extract, Rtkn, 10 [1] [fold] | Genotoxicity test, With S9 rat liver extract, Rtkn, 25 [1] [fold] | Genotoxicity test, Without S9 rat liver extract, Rtkn, 25 [1] [fold] | Genotoxicity test, With S9 rat liver extract, Rtkn, 50 [1] [fold] | Genotoxicity test, Without S9 rat liver extract, Rtkn, 50 [1] [fold] | Genotoxicity test, With S9 rat liver extract, Bscl 2, 10 [2] [fold] | Genotoxicity test, Without S9 rat liver extract, Bscl 2, 10 [2] [fold] | Genotoxicity test, With S9 rat liver extract, Bscl 2, 25 [2] [fold] | Genotoxicity test, Without S9 rat liver extract, Bscl 2, 25 [2] [fold] | Genotoxicity test, With S9 rat liver extract, Bscl 2, 50 [2] [fold] | Genotoxicity test, Without S9 rat liver extract, Bscl 2, 50 [2] [fold] | other results |
| --- | --- | --- | --- | --- | --- | --- | --- | --- | --- | --- | --- | --- | --- |
| CCCCOCC(CN1CC1C)OC(=O)NC1CCC(CC2CCC(NC(=O)OC(COCCCC)CN3CC3C)CC2)CC1 (centres unmarked) [Ex. 12] | 1.0 | 1.0 | 1.0 | 1.0 | 1.1 | 1.0 | 1.1 | 1.0 | 1.0 | 1.0 | 1.0 | 1.0 |  |
| CCCCCCCCCC(=O)OCC(CN1CC1C)OC(=O)NC1CCC(CC2CCC(NC(=O)OC(COC(=O)CCCCCCCCC)CN3CC3C)CC2)CC1 (centres unmarked) [Ex. 23] | 1.0 | 1.1 | 1.2 | 1.2 | 1.2 | 1.1 | 1.1 | 1.1 | 1.1 | 1.2 | 1.1 | 1.2 |  |
| CC(CN1CC1C)OC(=O)NC(C)(C)c1cccc(C(C)(C)NC(=O)OC(C)CN2CC2C)c1 (centres unmarked) [Comp. Ex. 8, reference compound] | 1.3 | 1.4 | 4.2 | 2.3 | 4.9 | 4.8 | 1.1 | 1.2 | 2.1 | 1.7 | 2.1 | 2.3 |  |
| CCCCOCC(CN1CC1(C)C)OC(=O)NCCCCCCn1c(=O)n(CCCCCCNC(=O)OC(COCCCC)CN2CC2(C)C)c(=O)n(CCCCCCNC(=O)OC(COCCCC)CN2CC2(C)C)c1=O (centres unmarked) [Ex. 31] |  |  |  |  |  |  |  |  |  |  |  |  | Genotoxicity test, Rtkn induction level [1, 3]: 1.2; Genotoxicity test, Rtkn induction level [1, 4]: 1.2; Genotoxicity test, Rtkn induction level [1, 5]: 1.3; Genotoxicity test, Rtkn induction level [1, 6]: 1.2; Genotoxicity test, Rtkn induction level [1, 7]: 1.2; Genotoxicity test, Bscl 2 induction level [2, 3]: 1.1; Genotoxicity test, Bscl 2 induction level [2, 4]: 1.1; Genotoxicity test, Bscl 2 induction level [2, 5]: 1.1; Genotoxicity test, Bscl 2 induction level [2, 6]: 1.2; Genotoxicity test, Bscl 2 induction level [2, 7]: 1.2 |
| Cc1ccccc1OCC(CN1CC1C)OC(=O)NCCCCCCn1c(=O)n(CCCCCCNC(=O)OC(COc2ccccc2C)CN2CC2C)c(=O)n(CCCCCCNC(=O)OC(COc2ccccc2C)CN2CC2C)c1=O (centres unmarked) [Ex. 21] | 1.2 | 1.2 | 1.4 | 1.3 | 1.5 | 1.5 | 1.0 | 1.1 | 1.3 | 1.2 | 1.4 | 1.6 |  |
| C=CCOCC(CN1CC1C)OC(=O)NCCCCCCn1c(=O)n(CCCCCCNC(=O)OC(COCC=C)CN2CC2C)c(=O)n(CCCCCCNC(=O)OC(COCC=C)CN2CC2C)c1=O (centres unmarked) [Ex. 9] | 1.1 | 1.0 | 1.1 | 1.1 | 1.2 | 1.1 | 1.2 | 1.1 | 1.2 | 1.2 | 1.2 | 1.2 |  |
| CCCCOCC(CN1CC1C)OC(=O)NCCCCCC/N=c1\oc(=O)n(CCCCCCNC(=O)OC(COCCCC)CN2CC2C)c(=O)n1CCCCCCNC(=O)OC(COCCCC)CN1CC1C (centres unmarked) [Ex. 15] | 1.1 | 1.1 |  | 1.0 |  | 0.9 | 1.0 | 1.1 |  | 1.1 |  | 0.9 |  |
| CC(CN1CC1C)OC(=O)NCCCCCC/N=c1\oc(=O)n(CCCCCCNC(=O)OC(C)CN2CC2C)c(=O)n1CCCCCCNC(=O)OC(C)CN1CC1C (centres unmarked) [Ex. 2] | 1.1 | 1.1 |  | 1.0 |  | 0.9 | 1.0 | 1.1 |  | 1.1 |  | 0.9 |  |
| CCCCC(CC)COCC(CN1CC1C)OC(=O)NCCCCCCn1c(=O)n(CCCCCCNC(=O)OC(COCC(CC)CCCC)CN2CC2C)c(=O)n(CCCCCCNC(=O)OC(COCC(CC)CCCC)CN2CC2C)c1=O (centres unmarked) [Ex. 20] | 1.0 | 1.1 | 1.1 | 1.3 | 1.1 | 1.2 | 0.9 | 1.0 | 0.8 | 1.0 | 0.7 | 0.7 |  |
| CC(CN1CC1C)OC(=O)NCCCCCCn1c(=O)n(CCCCCCNC(=O)OC(C)CN2CC2C)c(=O)n(CCCCCCNC(=O)OC(C)CN2CC2C)c1=O (centres unmarked) [Ex. 1] | 1.2 | 1.2 | 1.1 | 1.2 | 0.9 | 1.4 |  |  |  |  |  |  |  |
| CCCCCCCCCC(=O)OCC(CN1CC1C)OC(=O)NCCCCCCn1c(=O)n(CCCCCCNC(=O)OC(COC(=O)CCCCCCCCC)CN2CC2C)c(=O)n(CCCCCCNC(=O)OC(COC(=O)CCCCCCCCC)CN2CC2C)c1=O (centres unmarked) [Ex. 24] | 1.1 | 1.1 | 1.1 | 1.2 | 1.2 | 1.0 | 1.0 | 1.1 | 1.1 | 1.2 | 1.1 | 1.0 |  |
| COCCOCCOCCOCCOCCOCCOCCOCCOCCOCCOCCOCCOCCOCC(CN1CC1C)OC(=O)NCCCCCCn1c(=O)n(CCCCCCNC(=O)OC(COCCOCCOCCOCCOCCOCCOCCOCCOCCOCCOCCOCCOCCOC)CN2CC2C)c(=O)n(CCCCCCNC(=O)OC(COCCOCCOCCOCCOCCOCCOCCOCCOCCOCCOCCOCCOCCOC)CN2CC2C)c1=O (centres unmarked) [Ex. 29] | 1.1 | 1.0 | 1.1 | 1.1 | 1.1 | 1.1 | 1.1 | 1.1 | 1.1 | 1.4 | 1.1 | 1.4 |  |
| CC(OC(=O)NCCCCCCn1c(=O)n(CCCCCCNC(=O)OC(C)C(C)N2CC2C)c(=O)n(CCCCCCNC(=O)OC(C)C(C)N2CC2C)c1=O)C(C)N1CC1C (centres unmarked) [Ex. 8] | 1.3 | 1.2 | 1.5 | 1.4 | 1.3 | 1.4 |  |  |  |  |  |  |  |
